Inhibition and IC50 data for 21 compounds are collected here from US20260297092A1, “PYRAZOLOPYRIMIDINE DERIVATIVES AS INHIBITORS OF NLRP3” (Takeda Pharmaceutical Company Limited, priority 2023, published 2026).

Assay [1] deals with NLRP3 inflammasome (IL-1β production in THP-1 cells). Kind of assay: IL-1β TR-FRET Assay (percentage of inhibition at 300 nM, 6 μM or 10 μM). Format: cell-based, human. The note with it: Homo sapiens, LPS priming, ATP activation; for inhibition at 0.3 µM: THP-1, 300 nM, read-out: IL-1β inhibitory rate at 300 nM (%); for inhibition at 6 µM: THP-1, 6 μM, read-out: IL-1β inhibitory rate at 6 μM (%). In short, it runs like this:
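Percent inhibition of IL-1β used DMSO wells as 0% and 3 μM MCC-950 wells as full inhibition, with supernatant read by HTRF. Beforehand, IFN-γ-differentiated (25 ng/mL, 24 h), LPS-primed (50 ng/mL, 24 h) THP-1 cells received compound 30 min before inflammasome activation by 20 mM ATP for 2 h.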
A general note: In TR-FRET formats the signal depends on donor and acceptor labels being close together.

The test system of assay [2] is TNF-α (NF-κB pathway, THP-1 cells). Put plainly: TNF-α Assay (IC50). The note with it: Homo sapiens, 600 ng/mL LPS, 3 hours. Format: cell-based, human. In short, it runs like this:
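Supernatant TNF-α quantified by ELISA after 3 h stimulation with 600 ng/mL LPS at 37 °C, following 30 min compound preincubation. Cells: IFN-differentiated (25 ng/mL, 24 h) THP-1 macrophages, 40,000/well, serum-free. IC50 by sigmoidal fit of % inhibition, with TPCA-1 as 100% control.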

Where only a bound is given, the exact number is not on record here.

As to `CCOc1nc2nn(-c3c(C)cc(OC(F)F)cc3C(F)F)cc2c(=O)[nH]1` [Example 195, 2-[4-(difluoromethoxy)-2-(difluoromethyl)-6-methylphenyl]-6-ethoxy-2,5-dihydro-4H-pyrazolo[3,4-d]pyrimidin-4-one], the inhibition at 0.3 µM in assay [1] came to 101%. The IC50 in assay [2] is over 30 µM.
The matching figures for `CCOc1nc2nn(-c3c(F)cc(C4CC4)cc3F)cc2c(=O)[nH]1` [Example 103, 2-(4-cyclopropyl-2,6-difluorophenyl)-6-ethoxy-2,5-dihydro-4H-pyrazolo[3,4-d]pyrimidin-4-one]: 97% and over 30 µM.
For `Cc1ccc(-n2cc3c(=O)[nH]c(OC4CCOCC4)nc3n2)c(C)c1` [Example 176, 2-(2,4-dimethylphenyl)-6-[(oxan-4-yl)oxy]-2,5-dihydro-4H-pyrazolo[3,4-d]pyrimidin-4-one], in that order: 101% and over 30 µM.
In the case of `CCOCc1nc2nn(-c3c(C)cc(C)cc3O)cc2c(=O)[nH]1` [Example 46, 6-(ethoxymethyl)-2-(2-hydroxy-4,6-dimethylphenyl)-2,5-dihydro-4H-pyrazolo[3,4-d]pyrimidin-4-one], in assay [1], the inhibition at 0.3 µM was determined as 95%. Further, in assay [2], the IC50 was over 30 µM.
The matching figures for `CCOc1nc2nn(-c3c(F)cc(C4CC4)cc3C(F)F)cc2c(=O)[nH]1` [Example 110, 2-[4-cyclopropyl-2-(difluoromethyl)-6-fluorophenyl]-6-ethoxy-2,5-dihydro-4H-pyrazolo[3,4-d]pyrimidin-4-one]: 99% and over 30 µM.
As to `Cc1cc(C2CC2)cc(C)c1-n1cc2c(=O)[nH]c(-c3cnn(C)n3)nc2n1` [Example 258, 2-(4-cyclopropyl-2,6-dimethylphenyl)-6-(2-methyl-2H-1,2,3-triazol-4-yl)-2,5-dihydro-4H-pyrazolo[3,4-d]pyrimidin-4-one], the inhibition at 6 µM in assay [1] amounted to 100%. This compound showed an IC50 in assay [2] of over 30 µM.
The matching figures for `Cc1cc(C2CC2)cc(C)c1-n1cc2c(=O)[nH]c(O[C@H]3CCOC3)nc2n1` [Example 286, 2-(4-cyclopropyl-2,6-dimethylphenyl)-6-{[(3S)-oxolan-3-yl]oxy}-2,5-dihydro-4H-pyrazolo [3,4-d]pyrimidin-4-one]: 98% and over 30 µM.
With `CCOc1nc2nn(-c3c(F)cc(OC(F)F)cc3C(F)F)cc2c(=O)[nH]1` [Example 163, 2-[4-(difluoromethoxy)-2-(difluoromethyl)-6-fluorophenyl]-6-ethoxy-2,5-dihydro-4H-pyrazolo[3,4-d]pyrimidin-4-one], the inhibition at 0.3 µM in assay [1] is 97%. This compound yielded an IC50 in assay [2] of over 30 µM.
The matching figures for `COc1ccc(-c2nc3nn(-c4c(C)cc(C)cc4O)cc3c(=O)[nH]2)nc1` [Example 21, 2-(2-hydroxy-4,6-dimethylphenyl)-6-(5-methoxypyridin-2-yl)-2,5-dihydro-4H-pyrazolo[3,4-d]pyrimidin-4-one]: 98% and over 30 µM.
Turning to `COc1nc2nn(-c3c(F)cc(C4CC4)cc3C(F)F)cc2c(=O)[nH]1` [Example 193, 2-[4-cyclopropyl-2-(difluoromethyl)-6-fluorophenyl]-6-methoxy-2,5-dihydro-4H-pyrazolo[3,4-d]pyrimidin-4-one], the inhibition at 0.3 µM in assay [1] is 101%. The IC50 in assay [2] is over 30 µM.
Turning to `CCOc1nc2nn(-c3c(F)cc(OC)cc3Br)cc2c(=O)[nH]1` [Example 157, 2-(2-bromo-6-fluoro-4-methoxyphenyl)-6-ethoxy-2,5-dihydro-4H-pyrazolo[3,4-d]pyrimidin-4-one], in assay [1], the inhibition at 0.3 µM was determined as 102%. The half-maximal inhibitory concentration (IC50) in assay [2] was over 30 µM.
For `CCOc1nc2nn(-c3c(C)cc(Br)cc3F)cc2c(=O)[nH]1` [Example 24, 2-(4-bromo-2-fluoro-6-methylphenyl)-6-ethoxy-2,5-dihydro-4H-pyrazolo[3,4-d]pyrimidin-4-one], in that order: 99% and over 30 µM.
The matching figures for `COCCc1nc2nn(-c3c(C)cc(C)cc3O)cc2c(=O)[nH]1` [Example 38, 2-(2-hydroxy-4,6-dimethylphenyl)-6-(2-methoxyethyl)-2,5-dihydro-4H-pyrazolo[3,4-d]pyrimidin-4-one]: 100% and over 30 µM.
For the compound `Cc1ccc(-n2cc3c(=O)[nH]c(OC4CCC4)nc3n2)c(C)c1` [Example 87, 6-(cyclobutyloxy)-2-(2,4-dimethylphenyl)-2,5-dihydro-4H-pyrazolo[3,4-d]pyrimidin-4-one], the inhibition at 0.3 µM in assay [1] is 97%. This compound had an IC50 in assay [2] of over 30 µM.
The matching figures for `CCOc1nc2nn(-c3c(C)cc(C4(F)CC4)cc3F)cc2c(=O)[nH]1` [Example 182, 6-ethoxy-2-[2-fluoro-4-(1-fluorocyclopropyl)-6-methylphenyl]-2,5-dihydro-4H-pyrazolo[3,4-d]pyrimidin-4-one]: 102% and over 30 µM.
For `Cc1cc(C)c(-n2cc3c(=O)[nH]c(OCCCN(C)C)nc3n2)c(O)c1` [Example 115, 6-[3-(dimethylamino)propoxy]-2-(2-hydroxy-4,6-dimethylphenyl)-2,5-dihydro-4H-pyrazolo[3,4-d]pyrimidin-4-one], in that order: 99% and over 30 µM.
`CCOc1nc2nn(-c3ccc(C(F)(F)F)cc3C)cc2c(=O)[nH]1` [Example 69, 6-ethoxy-2-[2-methyl-4-(trifluoromethyl)phenyl]-2,5-dihydro-4H-pyrazolo[3,4-d]pyrimidin-4-one]: the inhibition at 0.3 µM in assay [1] was 100%. The compound further returned an IC50 in assay [2] of over 30 µM.
For `COCCOc1nc2nn(-c3c(C)cc(C)cc3O)cc2c(=O)[nH]1` [Example 22, 2-(2-hydroxy-4,6-dimethylphenyl)-6-(2-methoxyethoxy)-2,5-dihydro-4H-pyrazolo [3,4-d]pyrimidin-4-one], in that order: 101% and over 30 µM.
For the compound `Cc1cc(C2CC2)cc(C)c1-n1cc2c(=O)[nH]c([C@H]3C[C@@H](F)C3)nc2n1` [Example 249, 2-(4-cyclopropyl-2,6-dimethylphenyl)-6-[(1s,3s)-3-fluorocyclobutyl]-2,5-dihydro-4H-pyrazolo[3,4-d]pyrimidin-4-one], the inhibition at 6 µM in assay [1] stood at 98%. Moreover, the IC50 in assay [2] is over 30 µM.
On to `CO[C@H]1CCCC[C@@H]1c1nc2nn(-c3c(C)cc(C)cc3O)cc2c(=O)[nH]1` (racemic) [Example 36, racemic mixture of 2-(2-hydroxy-4,6-dimethylphenyl)-6-[(1R,2S)-2-methoxycyclohexyl]-2,5-dihydro-4H-pyrazolo[3,4-d]pyrimidin-4-one and 2-(2-hydroxy-4,6-dimethylphenyl)-6-[(1S,2R)-2-methoxycyclohexyl]-2,5-dihydro-4H-pyrazolo [3,4-d]pyrimidin-4-one], for which the inhibition at 0.3 µM in assay [1] worked out at 97%. Further, in assay [2], the IC50 is over 30 µM.
The matching figures for `Cc1cc(C)c(-n2cc3c(=O)[nH]c(C)nc3n2)c(O)c1` [Example 74, 2-(2-hydroxy-4,6-dimethylphenyl)-6-methyl-2,5-dihydro-4H-pyrazolo[3,4-d]pyrimidin-4-one]: 99% and over 30 µM.

The term IC50 denotes the concentration at which inhibition is half-maximal. The low end stands for higher potency, the high end for lower potency.
